Source: US20080113032A1, “Scalp Desensitizing Formulation” (BMM PowerMoves, LLC, priority 2001, published 2008)

How the values were obtained:
[1] = Recrystallization of benzocaine from the formulation after cooling to room temperature; format: physicochemical
Method: The formulation is prepared by first mixing the topical anesthetic, solubilizer, homopolymers and copolymers together and heating the mixture at about 80° C. while stirring. The perfume oil, skin conditioning oils and water or a thickening agent, depending on the type of composition desired, can be added after dissolution of all of the above components being heated has occurred.
This overall recrystallization problem is easily remedied by reheating the mixture either in a hot water bath or briefly in a microwave oven (<10 seconds). […] This is an improvement over the known art.
The following components were dissolved by stirring while heating in a water bath at 80° C. All of the following protocols are actual experiments developed for the production of the formulation.
After the above components were dissolved, the following components were added to the resulting solution while still heating.
The solution was then cooled to room temperature.

scalp or skin = assay: Desensitization of the scalp or skin, pain relief in hair treatment and manipulation procedures; format: in vivo; conditions: benzocaine concentration approximately 20 to 30 weight percent of the formulation

- benzocaine staying in solution ([1]; about 20 weight percent benzocaine, formulation cooled to room temperature): stays in solution
- re-solubility of the reheated mixture ([1]; about 22 to about 30 weight percent benzocaine, reheated in hot water bath or microwave oven (<10 seconds)): Total re-solubility is achieved
- precipitation in the mixture ([1]; about 22 to about 30 weight percent benzocaine, several hours after cooling to room temperature): some precipitation is observed
Structure (SMILES): CCOC(=O)c1ccc(N)cc1 [benzocaine, ethyl-p-aminobenzoate]
- recrystallization ([1]; about 20 weight percent benzocaine, after 24 hours): very small amount of recrystallization may be observed
- relief of pain associated with hair treatment and manipulation procedures (scalp or skin): effective at relieving the pain
